One data set deals with T1, VPAC2 receptor (Homo sapiens, UniProt P41587).
T1 construct: The human T-lymphoid cell line Sup-Ti, which expresses the VPAC2 receptor; host or cells: Sup-T1 (Sup-Ti [sic]) human T-lymphoid cell line
T1 sequence (P41587 24-438): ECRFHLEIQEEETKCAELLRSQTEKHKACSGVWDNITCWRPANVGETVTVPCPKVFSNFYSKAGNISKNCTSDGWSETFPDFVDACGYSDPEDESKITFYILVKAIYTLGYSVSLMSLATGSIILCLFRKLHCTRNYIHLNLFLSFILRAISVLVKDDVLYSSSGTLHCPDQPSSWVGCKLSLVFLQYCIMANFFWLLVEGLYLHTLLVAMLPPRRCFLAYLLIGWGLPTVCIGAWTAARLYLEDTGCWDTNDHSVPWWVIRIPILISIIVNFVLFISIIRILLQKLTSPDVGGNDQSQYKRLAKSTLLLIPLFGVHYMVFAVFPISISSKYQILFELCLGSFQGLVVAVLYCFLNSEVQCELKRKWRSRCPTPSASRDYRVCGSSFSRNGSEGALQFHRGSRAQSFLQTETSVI
Briefly: Sup-T1 cAMP agonist assay. The format is cell-based. The method, then:
The human T-lymphoid cell line Sup-Ti, which expresses the VPAC2 receptor, was obtained from the American Type Culture Collection (ATCC, CRL-1942) and maintained in growth medium at densities between 0.2 and 2×10^6 cells/ml in a 37° C. CO2 incubator. The growth medium was RPMI 1640 (Invitrogen) supplemented with 25 mM HEPES buffer and 10% fetal bovine serum (Gemini Bioproducts).
To evaluate VPAC2 agonist compound activity, cells in log-phase growth were washed once with growth medium at room temperature and plated into 96-well plates at a density of 4×10^4 cells per well in 150 uL of growth medium. Fifty uL of the compounds to be tested, prepared at appropriate concentrations in growth medium, were then added to designated wells. After 5 min at room temperature, the cells were lysed by adding 25 uL of lysis reagent 1A (cAMP Biotrak EIA system, Amersham Biosciences, RPN225) to each well. The 96-well plates were kept at room temperature for 10 min with shaking and then stored at 4° C. until analysis for cAMP (within 2 hr).
Cyclic AMP levels were determined in 100 uL of each lysate using the cAMP Biotrak Enzymeimmunoassay (EIA) kit according to the manufacture's instructions (Amersham Biosciences, RPN225). The activity of each VPAC2 agonist compound (EC50 value) was estimated by fitting the 7-concentration dose response data to a sigmoidal dose-response equation provided by the GraphPad Prism program (GraphPad Software, Inc.).

The subject of data set [1] is LPS-induced lung inflammation in male C57BL/6 mice. Briefly: LPS-induced lung inflammation in male C57BL/6 mice (BAL neutrophilia). Particulars: Dose 0.1%, BAL fluid neutrophilia. The format is in vivo. The protocol:
C57bl/6 mice are pretreated with vehicle or drug prior to an aerosol expose to lipopolysacchride (LPS, 500 μg/ml in sterile saline) for 15-30 minutes. The aerosol is generated by a Pari Ultra neb jet nebulizer, the outlet of which is connected to a small clear plastic chamber [H×W×D, 10.7×25.7×11 cm (4×10×4.5 in)] containing the animals. Bronchoalveolar lavage (BAL) is performed 24 hr later to determine the intensity of cell inflammation. BAL procedure is performed as described below.
Mice are pretreated with vehicle or drug prior to an intranasal administration of lipopolysacchride (0.05-0.3 mg/kg in sterile saline; 50 μl total volume, 25 μl/nostril). Intranasal administration is performed by presenting small droplets of the dosing solution at the nostril using a 25-50 μl eppendorff pipet. BAL is performed 3 to 24 h post LPS challenged as described above to determine the intensity of cell inflammation.
24 h following LPS exposure, animals are anesthetized with pentobarbital (80-100 mg/kg, i.p.), ketamine/xyzaline (80-120 mg/kg/2-4 mg/kg, i.p.) or urethane (1.5-2.4 g/kg, i.p.); and through a small midline neck incision (15-20 mm), the trachea is exposed and cannulated with 20-gauge tubing adapter. Lungs are lavaged with 2×1 ml sterile Hank's balanced salt solution without Ca++ and Mg++(HBSS). Lavage fluid is recovered after 30 sec by gentle aspiration and pooled for each animal. Samples are then centrifuged at 2000 rpm for 10 minutes at 5° C. Supernatant is aspirated, and red blood cells are lysed from the resulting pellet with 0.5 ml distilled water for 30 sec before restoring osmolarity to the remaining cells by the addition of 5 ml of HBSS. Samples are recentrifuged at 2000 rpm for 10 minutes at 5° C. and supernatant aspirated. The resulting pellet is resuspended in 1 ml of HBSS. Total cell number is determined by Trypan Blue (Sigma Chemical, St. Louis, Mo.) exclusion from an aliquot of cell suspension using a hemocytometer or coulter counter. For differential cell counts, an aliquot of the cell suspension is centrifuged in a Cytospin (5 min, 1300 rpm; Shandon Southern Instruments, Sewickley, Pa.) and the slides fixed and stained with a modified Wright's stain (Hema 3 stain kit, Fisher Scientific). Standard morphological criteria is used in classifying at least 300 cells under light microscopy. Data in Table 3 is expressed as BAL cells×10^4/animal for neutrophils and total cells, or percent inhibition of the LPS induced BAL fluid neutrophilia response.

Data set [2] deals with T2, human neutrophil elastase (Homo sapiens, UniProt P08246).
T2 sequence (P08246 30-247 limits assumed): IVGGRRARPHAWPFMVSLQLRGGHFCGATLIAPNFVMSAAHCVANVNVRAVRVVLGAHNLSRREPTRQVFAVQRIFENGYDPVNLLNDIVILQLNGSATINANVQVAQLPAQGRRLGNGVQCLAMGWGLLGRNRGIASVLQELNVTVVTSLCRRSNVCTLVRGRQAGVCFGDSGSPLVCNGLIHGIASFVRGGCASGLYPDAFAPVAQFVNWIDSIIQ
As to the kind of experiment: Peptide stability to neutrophil elastase (RP HPLC ESI MS). Particulars: halftime with human neutrophil elastase 1 to 2 μg/mL in PBS, ambient temperature, normalized to halftime of the reference standard.
Description: The proteolytic stabilities of peptide analogs were established with reversed phase high pressure liquid chromatography (RP HPLC) electrospray ionization mass spectrometry (ESI MS). Peptide analogs were incubated with human neutrophile elastase and the quantity of undigested analogs was determined by ESI MS at appropriate time points. Multiple peptide analogs could be included in one experiment as long as they could be differentiated by HPLC retention time and/or by molecular weight. Ac-His Ac-[sequence]Nle-[sequence]NH2 was used in all experiments as a control and as a reference standard. The simultaneous use of multiple peptide analogs together with a reference standard allowed for compensation for variations in the proteolytic fidelity of the enzyme over the multiple experiments. Integrated ion currents obtained for the individual undigested peptide were used for quantitation. For calculation of halftime first-order kinetic behavior was assumed and all calculations were normalized to the halftime of the reference standard.
Peptide stock solutions were prepared in water to a concentration of 2.5 mg/mL. Unless in use, all stock solutions were kept at −20° C. […] Concentrations of the peptide analogs were adjusted accordingly. In order to do the proteolytic digestion, peptides were dissolved in phosphate buffered saline (PBS) to a concentration of 0.1 mg/mL. As many as six different peptide analogs were mixed into one 50 μL reaction volume. The reference standard was added to all experiments as a reference and internal standard. Elastase (Human Neutrophil, Calbiochem, Cat # 324681) was added from an elastase stock solution to a concentration of 1 to 2 μg/mL. Different amounts of the enzyme were chosen to compensate for the differences in the proteolytic stabilities of the peptide analogs. Previously, a stock solution of elastase was prepared in water at a concentration of 1 mg/mL. Small aliquots of the enzyme stock solution were kept at −20° C. to better maintain the enzyme activity by limiting the number of thaw and freeze cycles.
The digestion was done at ambient temperature in an autosampler tube within the autosampler of the HPLC system (Agilent 1100 Series). For a time course, 5 μL aliquots were injected in 70 minute intervals onto the reversed phase HPLC column (Phenomenex, Luna C18, 3μ, 100 ↑, 150×2.00 mm). For the starting time point an aliquot was injected just prior to the addition of the proteolytic enzyme. A total of eight time points could be recorded from one experiment, including the starting point. Peptides were separated on the reversed phase column with a 50 minute gradient of 5% to 30% organic phase. The aqueous phase was 0.05% (v/v) of trifluoroacetic acid in water and the organic one was 0.045% (v/v) of trifluoroacetic acid in acetonitrile. Absorbances were recorded at 214 and 280 nm respectively. All of the column effluent was introduced into the turbo V source of the electrospray ionization mass spectrometer (ABI 4000 QTrap LC/MS/MS System). Mass spectra were acquired in Q3MS mode in a mass range to include all triply charged ions of the non degraded peptide analogs. Care was taken to assure that peptide analogs could clearly be differentiated either by the chromatographic retention time or by the difference in molecular weight. Relative quantities of the respective undigested peptide analog were calculated from the integrated total ion current. A window of 2.5 Da was chosen and the manufacturer's software was used to integrate the individual ion currents. The overall halftime of an individual peptide analog was calculated by assuming first-order kinetic behavior and was normalized with respect to the halftime of the reference standard.

[3] abbreviates: human T-lymphoid cell line Sup-T1 expressing VPAC2 receptor, cAMP EIA, 5 min at room temperature, read-out: Sup-T1 cAMP EC50.

Like-named read-outs stand apart in the source and are kept apart here. Bridge positions count the residues as written; N and C are the ends. Square brackets hold non-standard residues; d marks the D form. Peptide text beside a SMILES is read from it. ξ: configuration not given here. Thr(3ξ) = CC(O)[C@H](N)C(=O)O; Nle = CCCC[C@H](N)C(=O)O

On to `CCCC[C@H](NC(=O)[C@H](CCC(N)=O)NC(=O)[C@H](CCCCN)NC(=O)[C@H](CCCNC(=N)N)NC(=O)[C@H](CC(C)C)NC(=O)[C@H](CCCCN)NC(=O)[C@@H](NC(=O)[C@H](Cc1ccc(O)cc1)NC(=O)[C@H](CC(N)=O)NC(=O)[C@H](CCC(=O)O)NC(=O)[C@@H](NC(=O)[C@H](Cc1ccccc1)NC(=O)[C@@H](NC(=O)[C@H](C)NC(=O)[C@H](CC(=O)O)NC(=O)[C@H](CO)NC(=O)[C@H](Cc1c[nH]cn1)NC(C)=O)C(C)O)C(C)O)C(C)O)C(=O)N[C@@H](C)C(=O)N[C@@H](C)C(=O)N[C@@H](CCCCN)C(=O)N[C@H]1CCCCNC(=O)C[C@@H](C(=O)N[C@@H](CC(C)C)C(=O)N[C@@H](CCCCN)C(=O)N[C@@H](CCCCN)C(=O)NCC(=O)NCC(=O)N[C@H](C(N)=O)C(C)O)NC(=O)[C@H](CC(N)=O)NC(=O)[C@H](CC(C)C)NC(=O)[C@H](Cc2ccc(O)cc2)NC1=O` (stereo partly drawn) [Example 1] (Ac-HSDA[Thr(3ξ)]F[Thr(3ξ)]ENY[Thr(3ξ)]KLRKQ[Nle]AAKKYLNDLKKGG[Thr(3ξ)]-NH2; lactam 21-25), for which the half-maximal effective concentration (EC50) on VPAC2 receptor (setting [3]) was determined as 38 nM. Further, the “Inhibition of LPS-induced neutrophilia” value in data set [1] is recorded as “+ (+ 10-30%)”. The compound further gave a Relative elastase stability in data set [2] of 3.9.
The matching figures for `CCCC[C@H](NC(=O)[C@H](CCC(N)=O)NC(=O)[C@H](CCCCN)NC(=O)[C@H](CCCNC(=N)N)NC(=O)[C@H](CC(C)C)NC(=O)[C@H](CCCCN)NC(=O)[C@@H](NC(=O)[C@H](Cc1ccc(O)cc1)NC(=O)[C@H](CC(N)=O)NC(=O)[C@H](CCC(=O)O)NC(=O)[C@@H](NC(=O)[C@H](Cc1ccccc1)NC(=O)[C@H](CO)NC(=O)[C@H](C)NC(=O)[C@H](CC(=O)O)NC(=O)[C@H](CO)NC(=O)[C@H](Cc1c[nH]cn1)NC(C)=O)C(C)O)C(C)O)C(=O)N[C@@H](C)C(=O)N[C@@H](C)C(=O)N[C@@H](CCCCN)C(=O)N[C@H]1CCCCNC(=O)C[C@@H](C(=O)N[C@@H](CC(C)C)C(=O)N[C@@H](CCCCN)C(=O)N[C@@H](CCCCN)C(=O)NCC(=O)NCC(=O)N[C@H](C(N)=O)C(C)O)NC(=O)[C@H](CC(N)=O)NC(=O)[C@H](CC(C)C)NC(=O)[C@H](Cc2ccc(O)cc2)NC1=O` (stereo partly drawn) [Example 2] (Ac-HSDASF[Thr(3ξ)]ENY[Thr(3ξ)]KLRKQ[Nle]AAKKYLNDLKKGG[Thr(3ξ)]-NH2; lactam 21-25): 69.7 nM, “+ (+ 10-30%)” and 5.2.
For the compound `CCCC[C@H](NC(=O)[C@H](CCC(N)=O)NC(=O)[C@H](CCCCN)NC(=O)[C@H](CCCNC(=N)N)NC(=O)[C@H](CC(C)C)NC(=O)[C@H](CCCCN)NC(=O)[C@@H](NC(=O)[C@H](Cc1ccc(O)cc1)NC(=O)[C@H](CC(N)=O)NC(=O)[C@H](CCC(=O)O)NC(=O)[C@@H](NC(=O)[C@H](Cc1ccccc1)NC(=O)[C@@H]1CCCN1C(=O)[C@H](C)NC(=O)[C@H](CC(=O)O)NC(=O)[C@H](CO)NC(=O)[C@H](Cc1c[nH]cn1)NC(C)=O)C(C)O)C(C)O)C(=O)N[C@@H](C)C(=O)N[C@@H](C)C(=O)N[C@@H](CCCCN)C(=O)N[C@H]1CCCCNC(=O)C[C@@H](C(=O)N[C@@H](CC(C)C)C(=O)N[C@@H](CCCCN)C(=O)N[C@@H](CCCCN)C(=O)NCC(=O)NCC(=O)N[C@H](C(N)=O)C(C)O)NC(=O)[C@H](CC(N)=O)NC(=O)[C@H](CC(C)C)NC(=O)[C@H](Cc2ccc(O)cc2)NC1=O` (stereo partly drawn) [Example 5] (Ac-HSDAPF[Thr(3ξ)]ENY[Thr(3ξ)]KLRKQ[Nle]AAKKYLNDLKKGG[Thr(3ξ)]-NH2; lactam 21-25), the EC50 at VPAC2 receptor (setting [3]) was found to be 1210 nM. Moreover, in data set [2], the Relative elastase stability came to 4.9.
On VPAC2 receptor, `CCCC[C@H](NC(=O)[C@H](CCCNC(=N)N)NC(=O)[C@H](CCCCN)NC(=O)[C@H](CCCNC(=N)N)NC(=O)[C@H](CC(C)C)NC(=O)[C@H](CCCCN)NC(=O)[C@@H](NC(=O)[C@H](Cc1ccc(O)cc1)NC(=O)[C@H](CC(N)=O)NC(=O)[C@H](CCC(=O)O)NC(=O)[C@@H](NC(=O)[C@H](Cc1ccccc1)NC(=O)[C@H](CO)NC(=O)[C@H](C)NC(=O)[C@H](CC(=O)O)NC(=O)[C@H](CO)NC(=O)[C@H](Cc1c[nH]cn1)NC(C)=O)[C@@H](C)O)[C@@H](C)O)C(=O)N[C@@H](C)C(=O)N[C@@H](C)C(=O)N[C@@H](CCCCN)C(=O)N[C@H]1CCCCNC(=O)C[C@@H](C(=O)N[C@@H](CC(C)C)C(=O)N[C@@H](CC(C)C)C(=O)N[C@@H](CC(N)=O)C(=O)NCC(=O)NCC(=O)N[C@H](C(N)=O)[C@@H](C)O)NC(=O)[C@H](CC(N)=O)NC(=O)[C@H](CC(C)C)NC(=O)[C@H](Cc2ccc(O)cc2)NC1=O` [Example 14] (Ac-HSDASFTENYTKLRKR[Nle]AAKKYLNDLLNGGT-NH2; lactam 21-25) gave a half-maximal effective concentration (EC50) of 94.1 nM. Also, the Relative elastase stability in data set [2] amounted to 4.5.
As for `CCCC[C@H](NC(=O)[C@H](CCCNC(=N)N)NC(=O)[C@H](CCCCN)NC(=O)[C@H](CCCNC(=N)N)NC(=O)[C@H](CC(C)C)NC(=O)[C@H](CCCCN)NC(=O)[C@@H](NC(=O)[C@H](Cc1ccc(O)cc1)NC(=O)[C@H](CC(N)=O)NC(=O)[C@H](CCC(=O)O)NC(=O)[C@@H](NC(=O)[C@H](Cc1ccccc1)NC(=O)[C@H](CO)NC(=O)[C@H](C)NC(=O)[C@H](CC(=O)O)NC(=O)[C@H](CO)NC(=O)[C@H](Cc1c[nH]cn1)NC(C)=O)C(C)O)C(C)O)C(=O)N[C@@H](CCCCN)C(=O)N[C@@H](C)C(=O)N[C@@H](CCCCN)C(=O)N[C@H]1CCCCNC(=O)C[C@@H](C(=O)N[C@@H](CC(C)C)C(=O)N[C@@H](CCCCN)C(=O)N[C@@H](CCCCN)C(=O)NCC(=O)NCC(=O)N[C@H](C(N)=O)C(C)O)NC(=O)[C@H](CC(N)=O)NC(=O)[C@H](CC(C)C)NC(=O)[C@H](Cc2ccc(O)cc2)NC1=O` (stereo partly drawn) [Example 16] (Ac-HSDASF[Thr(3ξ)]ENY[Thr(3ξ)]KLRKR[Nle]KAKKYLNDLKKGG[Thr(3ξ)]-NH2; lactam 21-25), the EC50 at VPAC2 receptor (setting [3]) is 1030 nM. In data set [2], this compound showed a Relative elastase stability of 4.4.

The term EC50 denotes the concentration giving half of the maximal effect.

These data come from US20080096807A1, “Cyclic vasoactive intestinal peptide receptor-2 agonists” (priority 2006, published 2008).
